Data taken from patent US12257264B2, “Combination therapy for HIV with adenosine derivative and capsid inhibitors” (Brii Biosciences, Inc., priority 2021, dated 2025).
Where “and” joins values, the source holds several entries; their conditions need not be identical. Equal entries are not always repeated.

What was measured:
[1] = Plasma stability and conversion to EFdA
Procedure: The pooled frozen plasma was thawed in a water bath at 37° C. prior to experiment. Plasma was centrifuged at 4000 rpm for 5 min and the clots were removed if any. The pH will be adjusted to 7.4±0.1 if required.
Preparation of test compounds and positive control (propantheline bromide): 1 mM intermediate solution was prepared by diluting 10 μL of the stock solution with 90 μL MeOH; 1 mM intermediate of positive control Propantheline was prepared by diluting 10 μL of the stock solution with 90 μL ultrapure water. 100 μM dosing solution was prepared by diluting 20 μL of the intermediate solution (1 mM) with 180 μL MeOH. 98 μL of blank plasma was spiked with 2 μL of dosing solution (100 μM) to achieve 2 μM of the final concentration in duplicate and samples were incubated at 37° C. in a water bath. At each time point (0, 10, 30, 60 and 120 min), […] of stop solution (0.1% FA in MeOH containing 200 ng/mL tolbutamide and 200 ng/mL Labetalol) was added to precipitate protein and mixed thoroughly. Centrifuged sample plates at 4,000 rpm for 10 min. An aliquot of supernatant (100 μL) was transferred from each well to another plates.
Data analysis: The % remaining of test compound after incubation in plasma was calculated using following equation: % Remaining=100×(PAR at appointed incubation time/PAR at T0 time) where PAR is the peak area ratio of analyte versus internal standard (IS) (LC/MS/MS mobile phase condition: 0.1% Formic Acid in Water/0.1% Formic Acid in Acetonitrile. The appointed incubation time points are TO (0 min), Tn (n=0, 10, 30, 60, 120 min). Liver S9 Stability

[2] = Plasma exposures following IV infusion alone or in combination to Sprague-Dawley rats
Procedure: The pharmacokinetics of EFdA and prodrug formula 4-A, as well as lenacapavir were studied in rats after IV infusion administration alone or in combination at a dose of 1.0 mg/kg each.
Formulations: The prodrugs and lenacapavir were formulated alone or in combination as solutions at 1.0 mg/mL each in 20% […], 10% Solutol aqueous solution within 0.5 hour prior to dose.
Dose Administration and Sample Collection: The in-life phase of this study was conducted at the WuXi Apptec (WuXi) at Shanghai, China in accordance with the WuXi Institutional Animal Care and Use Committee (IACUC) standard animal procedures along with the IACUC guidelines that are in compliance with the Animal Welfare Act, the Guide for the Care and Use of Laboratory Animals. and was approved by the IACUA Committee. Male Sprague-Dawley rats (0.262+/−0.019 kg) were used for the studies. Each drug was administered as a single dose by 30-min IV infusion (1 ml/kg) alone or in combination. Plasma samples were collected at 0 (pre-dose), 5, 10, 15 and 30 min, 1, 2, 4, 7, 12 and 24 h post-dose. Blood (approximately 0.1 mL) was processed immediately for plasma by centrifugation at 3,200 g at 4° C. for 10 min within half an hour of collection. Plasma samples were frozen and maintained at −70° C. until analyzed. To stabilize the prodrug at the sample collection and subsequent analysis, the following stabilizing reagents were added to the blood collection K2EDTA tubes on wet ice prior to sample collection: for each 100 mL of blood, 10 mL of premade inhibitor cocktail consists of 600 mM Citric Acid, 400 mM PMSF, 400 mM NaF, and 400 mM Dichlorvos.
Determination of EFdA and Prodrugs in plasma: Briefly, plasma (20 μL) was mixed with 100 l acetonitrile to precipitate protein. Consistent with sample collection procedure, the same cocktail protocol was also added to stabilize the prodrug in the standard and QC samples.
Bioanalysis: A Sciex API-6500 Plus triplequadrupole mass spectrometer coupled with a Waters Acquity UPLC system (Framingham, MA 01701) was used for quantitative analysis of plasma samples. The column was a Waters HSS T3 column (2.1×50 mm, 1.8 micrometer). The mobile phases used were: A, 0.1% formic acid in water; B, 0.1% formic acid in acetonitrile. For the analysis of EFdA and prodrugs in plasma, the flow rate was 0.6 mL/min with a total run time of 2.0 min. […] Detection of the prodrug and EFdA were achieved using positive ion electrospray mass spectroscopic mode using unit resolution mode. Multiple reaction monitoring (MRM) modes were used to quantify both prodrug and EFdA, e.g. the MRM transition for EFdA was 294.0-154.2 Da, and the transition for prodrug 4-A was 449.3-164.9 Da. For the analysis of lenacapavir in plasma, the flow rate was 0.7 mL/min with a total run time of 1.5 min. The HPLC gradient was initiated at 95% A/5% B for 0.50 min, followed by linear gradient increase to […] over the next 0.2 min; the gradient was subsequently maintained at 100% of mobile B over the next 0.7 min before ramping down to 95% mobile phase A within the following 0.1 min. Detection of lenacapavir was achieved using positive ion electrospray mass spectroscopic mode using unit resolution mode. Multiple reaction monitoring (MRM) modes were used to quantify lenacapavir, e.g. the MRM transition for lenacapavir was 968.1-869.4 Da. Peak areas were integrated by the Sciex program Analyst®, version 1.6.3, operating on a Windows 7 computer where concentrations were determined by a weighted (1/x2) linear regression of peak area ratios (peak area of EFdA/peak area of corresponding IS) versus the nominal concentrations of the plasma calibration standards. Calculations were performed on unrounded numbers. Overall, Analyst® determined the precision and accuracy for the calibration standards and QC samples.

[3] = Prodrug formula 4-A IV infusion 1.0 mg/kg alone, 4.00 hrs, individual animals
[4] = Prodrug formula 4-A IV infusion 1.0 mg/kg alone, 7.00 hrs, individual animals
[5] = Prodrug formula 4-A IV infusion 1.0 mg/kg alone, 12.0 hrs, individual animals
[6] = Prodrug formula 4-A IV infusion 1.0 mg/kg alone, 24.0 hrs, individual animals
[7] = Prodrug formula 4-A IV infusion 1.0 mg/kg with Lenacapavir, 7.00 hrs, individual animals
[8] = Prodrug formula 4-A IV infusion 1.0 mg/kg with Lenacapavir, 12.0 hrs, individual animals
[9] = Prodrug formula 4-A IV infusion 1.0 mg/kg with Lenacapavir, 24.0 hrs, individual animals
[10] = Prodrug formula 4-A IV infusion 1.0 mg/kg with Lenacapavir, 48.0 hrs, individual animals
[11] = Prodrug formula 4-A IV infusion 1.0 mg/kg with Lenacapavir, 72.0 hrs, individual animals

For `C#C[C@]1(COC(=O)OCc2oc(=O)oc2C)O[C@@H](n2cnc3c(N)nc(F)nc32)C[C@@H]1O` [Formula 4-A, ((2R,3S,5R)-5-(6-amino-2-fluoro-9H-purin-9-yl)-2-ethynyl-3-hydroxytetrahydrofuran-2-yl)methyl ((5-methyl-2-oxo-1,3-dioxol-4-yl)methyl) carbonate], which “Conversion to the target drug (EFdA) in human plasma assay” value [1] is on record?
The value was “converted to the target drug efficiently”.

And the “Stability in Human Plasma Formation of EFdA” value ([1]; human plasma)?
The value was “Yes”.

What about the half-life at 2 µM ([1]; human, plasma, pH 7.4) of the same compound?
Its half-life at 2 µM is < 50 min.

And the “Prodrug formula 4A Concentrations in Rat Plasma When Dosed alone” value ([2]; Prodrug formula 4-A IV infusion 1.0 mg/kg alone, 0.0830 hrs, individual animals)?
The value was “BQL”.

And the “Prodrug formula 4A Concentrations in Rat Plasma When Dosed alone” value ([2]; Prodrug formula 4-A IV infusion 1.0 mg/kg alone, 0.167 hrs, individual animals)?
The value was “BQL”.

And the “Prodrug formula 4A Concentrations in Rat Plasma When Dosed alone” value ([2]; Prodrug formula 4-A IV infusion 1.0 mg/kg alone, 0.250 hrs, individual animals)?
Its value is “BQL”.

And the “Prodrug formula 4A Concentrations in Rat Plasma When Dosed alone” value ([2]; Prodrug formula 4-A IV infusion 1.0 mg/kg alone, 0.500 hrs, individual animals)?
Its value is “BQL”.

What about the “Prodrug formula 4A Concentrations in Rat Plasma When Dosed alone” value ([2]; Prodrug formula 4-A IV infusion 1.0 mg/kg alone, 1.00 hrs, individual animals) of the same compound?
The value was “BQL”.

What about the “Prodrug formula 4A Concentrations in Rat Plasma When Dosed alone” value ([2]; Prodrug formula 4-A IV infusion 1.0 mg/kg alone, 2.00 hrs, individual animals) of the same compound?
Its value is “BQL”.

And the “EFdA Concentrations in Rat Plasma When Dosed Alone” value [2, 3]?
The value was “BQL”.

And the “Prodrug formula 4A Concentrations in Rat Plasma When Dosed alone” value [2, 3]?
Its value is “BQL”.

What about the “EFdA Concentrations in Rat Plasma When Dosed Alone” value [2, 4] of the same compound?
The value was “BQL”.

And the “Prodrug formula 4A Concentrations in Rat Plasma When Dosed alone” value [2, 4]?
Its value is “BQL”.

What about the “EFdA Concentrations in Rat Plasma When Dosed Alone” value [2, 5] of the same compound?
Its value is “BQL”.

And the “Prodrug formula 4A Concentrations in Rat Plasma When Dosed alone” value [2, 5]?
Its value is “BQL”.

What about the “EFdA Concentrations in Rat Plasma When Dosed Alone” value [2, 6] of the same compound?
The value was “BQL”.

What about the “Prodrug formula 4A Concentrations in Rat Plasma When Dosed alone” value [2, 6] of the same compound?
The value was “BQL”.

What about the “Prodrug formula 4A Concentrations in Rat Plasma When Dosed with Lenacapavir” value ([2]; Prodrug formula 4-A IV infusion 1.0 mg/kg with Lenacapavir, 0.0830 hrs, individual animals) of the same compound?
The value was 1.37 ng/mL and 5.19 ng/mL and 1.54 ng/mL and 2.80 ng/mL.

What about the “Prodrug formula 4A Concentrations in Rat Plasma When Dosed with Lenacapavir” value ([2]; Prodrug formula 4-A IV infusion 1.0 mg/kg with Lenacapavir, 0.167 hrs, individual animals) of the same compound?
The value was “BQL”.

And the “Prodrug formula 4A Concentrations in Rat Plasma When Dosed with Lenacapavir” value ([2]; Prodrug formula 4-A IV infusion 1.0 mg/kg with Lenacapavir, 0.250 hrs, individual animals)?
The value was 1.13 ng/mL and BQL (2×) and 2.38 ng/mL.

And the “Prodrug formula 4A Concentrations in Rat Plasma When Dosed with Lenacapavir” value ([2]; Prodrug formula 4-A IV infusion 1.0 mg/kg with Lenacapavir, 0.500 hrs, individual animals)?
The value was “BQL”.

And the “Prodrug formula 4A Concentrations in Rat Plasma When Dosed with Lenacapavir” value ([2]; Prodrug formula 4-A IV infusion 1.0 mg/kg with Lenacapavir, 1.00 hrs, individual animals)?
Its value is “BQL”.

What about the “Prodrug formula 4A Concentrations in Rat Plasma When Dosed with Lenacapavir” value ([2]; Prodrug formula 4-A IV infusion 1.0 mg/kg with Lenacapavir, 2.00 hrs, individual animals) of the same compound?
Its value is “BQL”.

And the “Prodrug formula 4A Concentrations in Rat Plasma When Dosed with Lenacapavir” value ([2]; Prodrug formula 4-A IV infusion 1.0 mg/kg with Lenacapavir, 4.00 hrs, individual animals)?
Its value is “BQL”.

And the “EFdA Concentrations in Rat Plasma When Dosed with Lenacapavir” value (“EFdA Concentrations … with Lenacapavir” below) [2, 7]?
Its value is “BQL”.

What about the “Prodrug formula 4A Concentrations in Rat Plasma When Dosed with Lenacapavir” value [2, 7] of the same compound?
The value was “BQL”.

What about the “EFdA Concentrations … with Lenacapavir” value [2, 8] of the same compound?
Its value is “BQL”.

What about the “Prodrug formula 4A Concentrations in Rat Plasma When Dosed with Lenacapavir” value [2, 8] of the same compound?
The value was “BQL”.

And the “EFdA Concentrations … with Lenacapavir” value [2, 9]?
The value was “BQL”.

What about the “Prodrug formula 4A Concentrations in Rat Plasma When Dosed with Lenacapavir” value [2, 9] of the same compound?
The value was “BQL”.

And the “EFdA Concentrations … with Lenacapavir” value [2, 10]?
The value was “BQL”.

What about the “Prodrug formula 4A Concentrations in Rat Plasma When Dosed with Lenacapavir” value [2, 10] of the same compound?
The value was “BQL”.

And the “EFdA Concentrations … with Lenacapavir” value [2, 11]?
The value was “BQL”.

And the “Prodrug formula 4A Concentrations in Rat Plasma When Dosed with Lenacapavir” value [2, 11]?
The value was “BQL”.

And the concentration at 0.25 h ([2]; male, Sprague-Dawley, rat, in vivo, 1 mg/kg, Prodrug formula 4A Concentrations in Rat Plasma When Dosed alone, Prodrug formula 4-A IV infusion 1.0 mg/kg alone, 0.250 hrs, individual animals)?
The concentration at 0.25 h was 2.27 ng/mL.

What about the concentration at 0.083 h ([2]; male, Sprague-Dawley, rat, in vivo, Prodrug formula 4A Concentrations in Rat Plasma When Dosed with Lenacapavir, Prodrug formula 4-A IV infusion 1.0 mg/kg with Lenacapavir, 0.0830 hrs, Mean) of the same compound?
The concentration at 0.083 h was 2.73 ng/mL.

What about the concentration at 0.25 h ([2]; male, Sprague-Dawley, rat, in vivo, Prodrug formula 4A Concentrations in Rat Plasma When Dosed with Lenacapavir, Prodrug formula 4-A IV infusion 1.0 mg/kg with Lenacapavir, 0.250 hrs, Mean) of the same compound?
Its concentration at 0.25 h is 1.76 ng/mL.

And the “Prodrug detected in the systemic circulation” value ([2]; rats, in the absence and presences of lenacapavir)?
The value was “minimal prodrug detected in the systemic circulation”.
